From patent US4159373A, “7-Acyl-3-(sulfonic acid and sulfamoyl substituted tetrazolyl thiomethyl) cephalosporins” (SmithKline Corporation, priority 1978, dated 1979) come the findings set out here.

One assay has as its system Psuedo. sp. HH 63. Put plainly: MIC in vitro. Type of assay: cell-based, Pseudo. aeruginosa. Particulars: Pseudomonas aeruginosa; Table 1; Psuedo. sp. HH 63; read-out: MIC in vitro. On the procedure: (§1) The compounds of Formula I have exceptional antibacterial activity against both Gram-positive and Gram-negative organisms. Minimum inhibitory concentrations (MIC's) ranged from 0.2 to <200 μg./ml. in in vitro testing.

Another assay relates to Serra. marc ATCC 13880. Put plainly: MIC in vitro. It counts as cell-based, Serratia marcescens. As to conditions: for MIC: Serratia marcescens; for MIC in vitro: Table 1. On the procedure:
as §1

Another assay has as its system Kleb. pneumo. SK 4200. Put plainly: MIC in vitro. Type of assay: cell-based, Kleb. pneumoniae. Particulars: Table 1, Kleb. pneumo. SK 4200; for MIC: Klebsiella pneumoniae, read-out: MIC in vitro. On the procedure:
as §1

In the next assay the test system is Entero. cloacae HH 31254. Put plainly: MIC in vitro. As to conditions: Enterobacter cloacae. It counts as cell-based.
The test system of a further assay is Kleb. pneumo. 4200. Put plainly: In vivo mouse protection, Kleb. pneumo. 4200. Particulars: read-out: ED50 in vivo.
The test system of a further assay is E. coli 12140. Put plainly: In vivo mouse protection, E. coli 12140. As to conditions: Table 2, E. coli 12140, read-out: ED50 in vivo.
A further assay deals with S. aureus HH 127. Put plainly: MIC in vitro. It counts as cell-based. Particulars: Staphylococcus aureus, S. aureus HH 127. On the procedure: as §1
For another assay, the system named is E. coli HH 33779. Put plainly: MIC in vitro. It counts as cell-based. Particulars: for MIC: Escherichia coli. On the procedure: as §1
Another assay concerns Proteus morgani 179. Put plainly: MIC in vitro. It counts as cell-based. Particulars: for MIC: Table 1, read-out: MIC in vitro. On the procedure: as §1
The test system of the next assay is E. coli SK 12140. Put plainly: MIC in vitro. It counts as cell-based. Particulars: Escherichia coli, E. coli SK 12140. On the procedure:
as §1

The subject of a further assay is shigella HH 117. Put plainly: MIC in vitro. Type of assay: cell-based. Particulars: HH117; Table 1; shigella HH 117; read-out: MIC in vitro. On the procedure: as §1
The test system of a further assay is Salmonella ATCC 12176. Put plainly: MIC in vitro. Particulars: for MIC: Salmonella, ATCC12176, Table 1, read-out: MIC in vitro. It counts as cell-based. On the procedure:
as §1

A further assay has as its system Strep. Faecalis HH 34358. Put plainly: MIC in vitro. Type of assay: cell-based. Particulars: Table 1, Strep. Faecalis HH 34358; for MIC: Enterococcus faecalis, read-out: MIC in vitro. On the procedure: as §1
For assay [1], the system named is Entero. aerog. ATCC 13048. Put plainly: MIC in vitro. Particulars: Klebsiella aerogenes. Type of assay: cell-based, Enterobacter aerogenes. On the procedure:
as §1

The subject of a further assay is Kleb. pneumo. SK 1200. Put plainly: MIC in vitro. Type of assay: cell-based, Kleb. pneumoniae. As to conditions: Klebsiella pneumoniae, read-out: MIC in vitro. On the procedure:
as §1

In a further assay the test system is S. aureus SK 23390. Put plainly: MIC in vitro. As to conditions: Staphylococcus aureus, SK23390, Table 1; S. aureus SK 23390; read-out: MIC in vitro. It counts as cell-based. On the procedure: as §1
In the next assay the test system is S. villaluz. Put plainly: MIC in vitro. It counts as cell-based. Particulars: Table 1. On the procedure: as §1
Where [2] appears, read: ATCC13880, Table 1, Serra. marc ATCC 13880, read-out: MIC in vitro.
Where [3] appears, read: HH31254, Table 1, read-out: MIC in vitro.
[4] abbreviates: HH31254, read-out: MIC in vitro, Table 1.
Setting [5] is: sc, Table 2, Kleb. pneumo. 4200, s.c.
Setting [6] is: Escherichia coli, 12140, sc, s.c.
Setting [7] is: HH127, Table 1, read-out: MIC in vitro.
Setting [8] is: HH33779, Table 1, E. coli HH 33779, read-out: MIC in vitro.
The mark [9] stands for this setting: SK12140, Table 1, read-out: MIC in vitro.
[10] abbreviates: ATCC13048, Table 1, Entero. aerog. ATCC 13048, read-out: MIC in vitro.
[11] abbreviates: Escherichia coli, 12140, po, p.o.
[12] abbreviates: ATCC13880, read-out: MIC in vitro.

≈ marks a conversion by molar mass, not a printed value. Where two headings read alike, the source gives them in different places.

As usually defined, the MIC is the lowest concentration found to suppress growth. A word on the ED50: it is the dose at which the effect has come halfway, by size or by number of responders. For `O=C(O)C1=C(CSc2nnnn2CS(=O)(=O)O)CS[C@@H]2C(NC(=O)[C@H](O)c3ccccc3)C(=O)N12` (stereo partly drawn) [I, 7-D-Mandelamido-3-(1-sulfomethyltetrazol-5-ylthiomethyl)-3-cephem-4-carboxylic acid], the MIC was over 200 µg/mL in the assay with Psuedo. sp. HH 63; 12.5 µg/mL (≈ 23 µM) in the assay with Serra. marc ATCC 13880 (setting [2]); 0.8 µg/mL (≈ 1.47 µM) in the assay on Kleb. pneumo. SK 4200; 3 µg/mL (≈ 5.53 µM) in the assay with Entero. cloacae HH 31254 (setting [3]); 0.8 µg/mL (≈ 1.47 µM) with Entero. cloacae HH 31254 (setting [4]); 3.1 µg/mL (≈ 5.71 µM) with S. aureus HH 127 (HH127, read-out: MIC in vitro, Table 1). Moreover, the MIC in the assay on S. aureus HH 127 (setting [7]) was found to be 6 µg/mL (≈ 11.1 µM); in the assay with E. coli HH 33779 (setting [8]), 3.1 µg/mL (≈ 5.71 µM); in the assay with Proteus morgani 179 it was 3 µg/mL (≈ 5.53 µM); with E. coli SK 12140 (setting [9]), 0.8 µg/mL (≈ 1.47 µM); in the assay with shigella HH 117, 0.4 µg/mL (≈ 0.737 µM); in the assay on Salmonella ATCC 12176 it was 0.8 µg/mL (≈ 1.47 µM). Also, in the assay on Strep. Faecalis HH 34358, the MIC was found to be 50 µg/mL (≈ 92.2 µM). In addition, the MIC in vitro with Serra. marc ATCC 13880 (Serra. marc ATCC 13880) was 13 µg/mL (≈ 24 µM); against E. coli HH 33779 (Table 1, E. coli HH 33779), 1.6 µg/mL (≈ 2.95 µM); in the assay with Proteus morgani 179 (Table 1), 3.1 µg/mL (≈ 5.71 µM); against Salmonella ATCC 12176 (Table 1), 0.4 µg/mL (≈ 0.737 µM); in the assay with Strep. Faecalis HH 34358 it was 100 µg/mL (≈ 184 µM). Besides, the ED50 in the assay on Kleb. pneumo. 4200 (setting [5]) worked out at 0.28 mg/kg; in the assay with E. coli 12140 (setting [6]) it was 1.56 mg/kg.
For `O=C(Cc1cccs1)NC1C(=O)N2C(C(=O)O)=C(CSc3nnnn3CS(=O)(=O)O)CS[C@H]12` (stereo partly shown) [V, 7-(2-thienylacetamido)-3-(1-sulfomethyltetrazol-5-ylthiomethyl)-3-cephem-4-carboxylic acid], the MIC is over 200 µg/mL with Psuedo. sp. HH 63; 12.5 µg/mL (≈ 23.5 µM) in assay [1] (setting [10]); 100 µg/mL (≈ 188 µM) in the assay on Serra. marc ATCC 13880 (setting [2]); 0.4 µg/mL (≈ 0.751 µM) in the assay on Kleb. pneumo. SK 1200; 1.6 µg/mL (≈ 3 µM) in the assay on Kleb. pneumo. SK 4200; 1.6 µg/mL (≈ 3 µM) in the assay on Entero. cloacae HH 31254 (setting [3]). Besides, the MIC in the assay with S. aureus HH 127 (setting [7]) was 0.8 µg/mL (≈ 1.5 µM); in the assay with E. coli HH 33779 (setting [8]), 6.3 µg/mL (≈ 11.8 µM); in the assay on S. aureus SK 23390, 0.4 µg/mL (≈ 0.751 µM); in the assay with Proteus morgani 179, over 200 µg/mL; in the assay with E. coli SK 12140 (setting [9]), 1.6 µg/mL (≈ 3 µM); with shigella HH 117 it was 1.6 µg/mL (≈ 3 µM). The MIC stood at 0.8 µg/mL (≈ 1.5 µM) in the assay on Salmonella ATCC 12176 and 25 µg/mL (≈ 46.9 µM) in the assay on Strep. Faecalis HH 34358. Moreover, the MIC in vitro in the assay on Serra. marc ATCC 13880 (Serra. marc ATCC 13880) came to 200 µg/mL (≈ 376 µM); in the assay on Kleb. pneumo. SK 4200 it was 0.8 µg/mL (≈ 1.5 µM); against Strep. Faecalis HH 34358, 50 µg/mL (≈ 93.9 µM). Further, the 50% effective dose (ED50) is 0.26 mg/kg with Kleb. pneumo. 4200 (setting [5]), over 50 mg/kg in the assay with E. coli 12140 (setting [11]) and 4 mg/kg in the assay with E. coli 12140 (setting [6]).
Consider `NS(=O)(=O)CCn1nnnc1SCC1=C(C(=O)O)N2C(=O)C(NC(=O)[C@H](O)c3ccccc3)[C@H]2SC1` (stereo partly drawn) [III, 7-D-mandelamido-3-[1-(2-sulfamoylethyl)tetrazol-5-ylthiomethyl]-3-cephem-4-carboxylic acid], for which the MIC with Psuedo. sp. HH 63 is over 200 µg/mL; in assay [1] (setting [10]), 3.1 µg/mL (≈ 5.58 µM); with Serra. marc ATCC 13880 (setting [12]), 6.3 µg/mL (≈ 11.3 µM); with Kleb. pneumo. SK 1200 (Table 1, Kleb. pneumo. SK 1200) it was 0.8 µg/mL (≈ 1.44 µM); with Kleb. pneumo. SK 4200 it was 1.6 µg/mL (≈ 2.88 µM); in the assay with Entero. cloacae HH 31254 (setting [4]) it was 0.8 µg/mL (≈ 1.44 µM). The MIC in the assay with S. aureus HH 127 (setting [7]) amounted to 1.6 µg/mL (≈ 2.88 µM); with E. coli HH 33779 (setting [8]), 1.6 µg/mL (≈ 2.88 µM); in the assay with S. aureus SK 23390 it was 0.2 µg/mL (≈ 0.36 µM); in the assay on Proteus morgani 179 it was 3.1 µg/mL (≈ 5.58 µM); in the assay on E. coli SK 12140 (setting [9]), 0.8 µg/mL (≈ 1.44 µM); in the assay with shigella HH 117, 0.2 µg/mL (≈ 0.36 µM). In addition, the MIC in the assay on Salmonella ATCC 12176 came out at 0.4 µg/mL (≈ 0.72 µM); in the assay with Strep. Faecalis HH 34358 it was 12.5 µg/mL (≈ 22.5 µM). Besides, the ED50 came to 21.5 mg/kg in the assay with Kleb. pneumo. 4200 (po, Table 2, Kleb. pneumo. 4200, p.o.); 0.68 mg/kg with Kleb. pneumo. 4200 (setting [5]); 25 mg/kg in the assay with E. coli 12140 (setting [11]); 0.7 mg/kg in the assay on E. coli 12140 (setting [6]).
As to `NCc1ccccc1CC(=O)NC1C(=O)N2C(C(=O)O)=C(CSc3nnnn3CS(=O)(=O)O)CS[C@H]12` (stereo partly shown) [XI, 7-(o-aminomethylphenylacetamido)-3-(1-sulfomethyltetrazol-5-ylthiomethyl)-3-cephem-4-carboxylic acid], the MIC in the assay on Psuedo. sp. HH 63 is over 200 µg/mL; in [1] (ATCC13048, read-out: MIC in vitro), 0.8 µg/mL (≈ 1.44 µM); in the assay with Serra. marc ATCC 13880 (setting [12]), 6.3 µg/mL (≈ 11.3 µM); in the assay on Kleb. pneumo. SK 1200 (Table 1, Kleb. pneumo. SK 1200), at most 0.1 µg/mL; with Kleb. pneumo. SK 4200, at most 0.1 µg/mL; with Entero. cloacae HH 31254 (setting [4]), 0.8 µg/mL (≈ 1.44 µM). In addition, the MIC against S. villaluz turned out to be 200 µg/mL (≈ 360 µM); in the assay with S. aureus HH 127 (setting [7]) it was 1.6 µg/mL (≈ 2.88 µM); in the assay with E. coli HH 33779 (HH33779, read-out: MIC in vitro), 0.4 µg/mL (≈ 0.72 µM); in the assay with S. aureus SK 23390, 1.6 µg/mL (≈ 2.88 µM); with Proteus morgani 179, 50 µg/mL (≈ 90 µM); in the assay on E. coli SK 12140 (SK12140, read-out: MIC in vitro, Table 1), 0.2 µg/mL (≈ 0.36 µM). Also, the minimal inhibitory concentration (MIC) was at most 0.1 µg/mL with Salmonella ATCC 12176 and 25 µg/mL (≈ 45 µM) with Strep. Faecalis HH 34358. The ED50 in the assay with E. coli 12140 (setting [6]) was 21.5 mg/kg.
